{
  "source": "patent US8227428B2",
  "about": "“Anti-infammatory macrolide” (Glaxo Group Limited, priority 2009, dated 2012)",
  "key": {"[1]": {"test": "Stability in buffer solutions pH 2 to pH 8 at 25° C.", "assay_type": "physicochemical", "experimental": "(§1) Stability in buffer solutions pH 2 to pH 8 at 25° C., and in bio-relevant media (SGF pH 1.6, Fasted SIF pH 6.5 and Fed SIF pH 5.0) at 37° C., during 24 hours is monitored. The samples are analysed by LC/MS.\nBuffer Solutions and Physiologically Relevant Media Used in Stability Assay:\nLC Conditions: Instrument HP1100\nColumn: Waters XBridge C18, 2.1×50 mm, 3.5 μm\nGuard column: Waters XBridge C18, 2.1×10 mm, 3.5 μm\n• A) 0.1% HCOOH/H2O • B) 0.1% HCOOH/CH3CN Gradient Timetable: […]\n(§2) Flow: 0.3 mL/min Column temp.: 25° C. Sample temp.: 25° C. (for stability assay in buffer solutions) • 37° C. (for stability assay in bio-relevant media) Injector volume: 3 μL (without injection program) MS Conditions: Instrument HP MS API-ES, positive ion mode Mass Range: 150-1500 Fragmentor: 100 Gain: 1.0 Treshold: 150 Step size: 0.20 Gas Temperature: 350° C. Drying Gas Flow: 13 L/min Nebulizer Pressure: 35 psig Capillary Voltage Positive 4000 V • Negative 4000 V Sample Preparation: a) For Stability Assay in Buffer Solutions\nCompounds are dissolved in CH3CN to produce a 1 mg/mL stock solution. The stock solution is diluted to a concentration of 0.2 mg/mL (1 mL solution in 4 mL buffer) with appropriate buffer to produce a working solution.\nEach solution at each pH is then dispatched into vials that are sealed and stored at room temperature in order to be analyzed at the proper time point. Before analysis, pH values of prepared sample solutions are checked and adjusted if neccessary."}, "[2]": {"test": "Stability in bio-relevant media (SGF, Fasted SIF, Fed SIF) at 37° C.", "assay_type": "physicochemical", "experimental": "as §1\nSGF (Simulated Gastric Fluid) pH 1.6\nFasted SIF (Simulated Intestinal Fluid) pH 6.5\nFed SIF (Simulated Intestinal Fluid) pH 5.0\nas §2\nb) For Stability Assay in Bio-Relevat Media\nb1) For SGF Media pH 1.6 Testing:\nCompounds are dissolved in SGF media pH 1.6 to give 0.2 mg/mL solution in case of compounds 1 and 2, and to give 0.1 mg/mL solution in case of compound 3. Solutions are then stored in a water bath at 37° C. and removed at the proper time point for LC/MS analysis. Before analysis, pH values of prepared sample solutions are checked and adjusted if necessary.\nb2) For Fasted SIF Media pH 6.5 Testing:\n(§3) Compounds are dissolved in Fasted SIF media pH 6.5 to give 2 mg/mL solution. Solutions are then dispatched into vials that are stored in a water bath at 37° C. and removed at the proper time point and diluted 10 times with CH3CN for LC/MS analysis. Before analysis, pH values of prepared sample solutions are checked and adjusted if necessary.\nb3) For Fed SIF Media pH 5.0 Testing:\nas §3, with “Fed” for “Fasted”, “5.0” for “6.5”, “40” for “10”"}},
  "data": [
    {"compound": "CC[C@H]1OC(=O)[C@H](C)[C@@H](O[C@H]2C[C@@](C)(OC)[C@@H](OC(=O)CN(CC)CC)[C@H](C)O2)[C@H](C)[C@@H](O[C@@H]2O[C@H](C)C[C@H](N(C)C)[C@H]2O)[C@](C)(OC)C[C@@H](C)C(=O)N[C@H](C)[C@@H](O)[C@]1(C)O", "note": "[Example 3, 4″-O-(2-diethylaminoethanoyl)-6-O-methyl-9a-aza-9a-homoerythromycin A]", "values": [
      {"measurement": "Percentage (Area %) of the compound observed in buffers", "setting": "[1]; pH 6, 25° C., 20 h", "result": 99.7, "unit": "Area %"},
      {"measurement": "Percentage (Area %) of the compound observed in buffers", "setting": "[1]; pH 6, 25° C., 22 h", "result": 99.7, "unit": "Area %"},
      {"measurement": "Percentage (Area %) of the compound observed in buffers", "setting": "[1]; pH 6, 25° C., 24 h", "result": 99.7, "unit": "Area %"},
      {"measurement": "Percentage (Area %) of the compound observed in buffers", "setting": "[1]; pH 6, 25° C., Initial", "result": 100, "unit": "Area %"},
      {"measurement": "Percentage (Area %) of the compound observed in buffers", "setting": "[1]; pH 7, 25° C., 2 h", "result": 100, "unit": "Area %"},
      {"measurement": "Percentage (Area %) of the compound observed in buffers", "setting": "[1]; pH 7, 25° C., 4 h", "result": 99.9, "unit": "Area %"},
      {"measurement": "Percentage (Area %) of the compound observed in buffers", "setting": "[1]; pH 7, 25° C., 6 h", "result": 99.9, "unit": "Area %"},
      {"measurement": "Percentage (Area %) of the compound observed in buffers", "setting": "[1]; pH 7, 25° C., 8 h", "result": 99.9, "unit": "Area %"},
      {"measurement": "Percentage (Area %) of the compound observed in buffers", "setting": "[1]; pH 7, 25° C., 12 h", "result": 99.7, "unit": "Area %"},
      {"measurement": "Percentage (Area %) of the compound observed in buffers", "setting": "[1]; pH 7, 25° C., 14 h", "result": 99.7, "unit": "Area %"},
      {"measurement": "Percentage (Area %) of the compound observed in buffers", "setting": "[1]; pH 7, 25° C., 18 h", "result": 99.8, "unit": "Area %"},
      {"measurement": "Percentage (Area %) of the compound observed in buffers", "setting": "[1]; pH 7, 25° C., 20 h", "result": 98.8, "unit": "Area %"},
      {"measurement": "Percentage (Area %) of the compound observed in buffers", "setting": "[1]; pH 7, 25° C., 22 h", "result": 99.7, "unit": "Area %"},
      {"measurement": "Percentage (Area %) of the compound observed in buffers", "setting": "[1]; pH 7, 25° C., 24 h", "result": 98.7, "unit": "Area %"},
      {"measurement": "Percentage (Area %) of the compound observed in buffers", "setting": "[1]; pH 7, 25° C., Initial", "result": 100, "unit": "Area %"},
      {"measurement": "Percentage (Area %) of the compound observed in buffers", "setting": "[1]; pH 8, 25° C., 2 h", "result": 99.9, "unit": "Area %"},
      {"measurement": "Percentage (Area %) of the compound observed in buffers", "setting": "[1]; pH 8, 25° C., 4 h", "result": 99.9, "unit": "Area %"},
      {"measurement": "Percentage (Area %) of the compound observed in buffers", "setting": "[1]; pH 8, 25° C., 6 h", "result": 99.9, "unit": "Area %"},
      {"measurement": "Percentage (Area %) of the compound observed in buffers", "setting": "[1]; pH 8, 25° C., 8 h", "result": 99.7, "unit": "Area %"},
      {"measurement": "Percentage (Area %) of the compound observed in buffers", "setting": "[1]; pH 8, 25° C., 12 h", "result": 99.5, "unit": "Area %"},
      {"measurement": "Percentage (Area %) of the compound observed in buffers", "setting": "[1]; pH 8, 25° C., 14 h", "result": 99.4, "unit": "Area %"},
      {"measurement": "Percentage (Area %) of the compound observed in buffers", "setting": "[1]; pH 8, 25° C., 18 h", "result": 98.4, "unit": "Area %"},
      {"measurement": "Percentage (Area %) of the compound observed in buffers", "setting": "[1]; pH 8, 25° C., 20 h", "result": 98.3, "unit": "Area %"},
      {"measurement": "Percentage (Area %) of the compound observed in buffers", "setting": "[1]; pH 8, 25° C., 22 h", "result": 98.2, "unit": "Area %"},
      {"measurement": "Percentage (Area %) of the compound observed in buffers", "setting": "[1]; pH 8, 25° C., 24 h", "result": 98.2, "unit": "Area %"},
      {"measurement": "Percentage (Area %) of the compound observed in buffers", "setting": "[1]; pH 8, 25° C., Initial", "result": 100, "unit": "Area %"},
      {"measurement": "Percentage (Area %) of the compound observed in Bio-relevant media", "setting": "[2]; Fasted SIF pH 6.5, 37° C., 1 h", "result": 99.2, "unit": "Area %"},
      {"measurement": "Percentage (Area %) of the compound observed in Bio-relevant media", "setting": "[2]; Fasted SIF pH 6.5, 37° C., 2 h", "result": 98.7, "unit": "Area %"},
      {"measurement": "Percentage (Area %) of the compound observed in Bio-relevant media", "setting": "[2]; Fasted SIF pH 6.5, 37° C., 3 h", "result": 98.3, "unit": "Area %"},
      {"measurement": "Percentage (Area %) of the compound observed in Bio-relevant media", "setting": "[2]; Fasted SIF pH 6.5, 37° C., 4 h", "result": 97.8, "unit": "Area %"},
      {"measurement": "Percentage (Area %) of the compound observed in Bio-relevant media", "setting": "[2]; Fasted SIF pH 6.5, 37° C., 5 h", "result": 97.6, "unit": "Area %"},
      {"measurement": "Percentage (Area %) of the compound observed in Bio-relevant media", "setting": "[2]; Fasted SIF pH 6.5, 37° C., 24 h", "result": 95.1, "unit": "Area %"},
      {"measurement": "Percentage (Area %) of the compound observed in Bio-relevant media", "setting": "[2]; Fasted SIF pH 6.5, 37° C., Initial", "result": 100, "unit": "Area %"},
      {"measurement": "Percentage (Area %) of the compound observed in Bio-relevant media", "setting": "[2]; Fed SIF pH 5.0, 37° C., 1 h", "result": 100, "unit": "Area %"},
      {"measurement": "Percentage (Area %) of the compound observed in Bio-relevant media", "setting": "[2]; Fed SIF pH 5.0, 37° C., 2 h", "result": 99.9, "unit": "Area %"},
      {"measurement": "Percentage (Area %) of the compound observed in Bio-relevant media", "setting": "[2]; Fed SIF pH 5.0, 37° C., 3 h", "result": 100, "unit": "Area %"},
      {"measurement": "Percentage (Area %) of the compound observed in Bio-relevant media", "setting": "[2]; Fed SIF pH 5.0, 37° C., 4 h", "result": 99.9, "unit": "Area %"},
      {"measurement": "Percentage (Area %) of the compound observed in Bio-relevant media", "setting": "[2]; Fed SIF pH 5.0, 37° C., 5 h", "result": 99.8, "unit": "Area %"},
      {"measurement": "Percentage (Area %) of the compound observed in Bio-relevant media", "setting": "[2]; Fed SIF pH 5.0, 37° C., 24 h", "result": 99.8, "unit": "Area %"},
      {"measurement": "Percentage (Area %) of the compound observed in Bio-relevant media", "setting": "[2]; Fed SIF pH 5.0, 37° C., Initial", "result": 100, "unit": "Area %"},
      {"measurement": "Percentage (Area %) of the compound observed in Bio-relevant media", "setting": "[2]; SGF pH 1.6, 37° C., 1 h", "result": 98.5, "unit": "Area %"},
      {"measurement": "Percentage (Area %) of the compound observed in Bio-relevant media", "setting": "[2]; SGF pH 1.6, 37° C., 2 h", "result": 98.5, "unit": "Area %"},
      {"measurement": "Percentage (Area %) of the compound observed in Bio-relevant media", "setting": "[2]; SGF pH 1.6, 37° C., 3 h", "result": 98.0, "unit": "Area %"},
      {"measurement": "Percentage (Area %) of the compound observed in Bio-relevant media", "setting": "[2]; SGF pH 1.6, 37° C., 4 h", "result": 98.0, "unit": "Area %"},
      {"measurement": "Percentage (Area %) of the compound observed in Bio-relevant media", "setting": "[2]; SGF pH 1.6, 37° C., 5 h", "result": 98.0, "unit": "Area %"},
      {"measurement": "Percentage (Area %) of the compound observed in Bio-relevant media", "setting": "[2]; SGF pH 1.6, 37° C., 6 h", "result": 95.9, "unit": "Area %"},
      {"measurement": "Percentage (Area %) of the compound observed in Bio-relevant media", "setting": "[2]; SGF pH 1.6, 37° C., 8 h", "result": 95.7, "unit": "Area %"},
      {"measurement": "Percentage (Area %) of the compound observed in Bio-relevant media", "setting": "[2]; SGF pH 1.6, 37° C., 10 h", "result": 95.0, "unit": "Area %"},
      {"measurement": "Percentage (Area %) of the compound observed in Bio-relevant media", "setting": "[2]; SGF pH 1.6, 37° C., 12 h", "result": 95.0, "unit": "Area %"},
      {"measurement": "Percentage (Area %) of the compound observed in Bio-relevant media", "setting": "[2]; SGF pH 1.6, 37° C., 24 h", "result": 94.5, "unit": "Area %"},
      {"measurement": "Percentage (Area %) of the compound observed in Bio-relevant media", "setting": "[2]; SGF pH 1.6, 37° C., Initial", "result": 100, "unit": "Area %"},
      {"measurement": "stability in all three bio relevant media", "setting": "[2]; SGF pH 1.6, Fasted SIF pH 6.5, Fed SIF pH 5.0, 37° C., during 24 hours", "result": "Examples 1 and 3 showed stability in all three bio relevant media."}
    ]}
  ]
}
